Here are results for 6 molecules from publication PMC6010071, “Blocking oestradiol synthesis pathways with potent and selective coumarin derivatives” (Journal of Enzyme Inhibition and Medicinal Chemistry, 2018).

Like-named read-outs stand apart in the source and are kept apart here.

One data set has as its target T1, ERα (Homo sapiens, UniProt P03372).
T1 construct: purchased Life Technologies, Carlsbad, CA
T1 sequence (P03372 1-595): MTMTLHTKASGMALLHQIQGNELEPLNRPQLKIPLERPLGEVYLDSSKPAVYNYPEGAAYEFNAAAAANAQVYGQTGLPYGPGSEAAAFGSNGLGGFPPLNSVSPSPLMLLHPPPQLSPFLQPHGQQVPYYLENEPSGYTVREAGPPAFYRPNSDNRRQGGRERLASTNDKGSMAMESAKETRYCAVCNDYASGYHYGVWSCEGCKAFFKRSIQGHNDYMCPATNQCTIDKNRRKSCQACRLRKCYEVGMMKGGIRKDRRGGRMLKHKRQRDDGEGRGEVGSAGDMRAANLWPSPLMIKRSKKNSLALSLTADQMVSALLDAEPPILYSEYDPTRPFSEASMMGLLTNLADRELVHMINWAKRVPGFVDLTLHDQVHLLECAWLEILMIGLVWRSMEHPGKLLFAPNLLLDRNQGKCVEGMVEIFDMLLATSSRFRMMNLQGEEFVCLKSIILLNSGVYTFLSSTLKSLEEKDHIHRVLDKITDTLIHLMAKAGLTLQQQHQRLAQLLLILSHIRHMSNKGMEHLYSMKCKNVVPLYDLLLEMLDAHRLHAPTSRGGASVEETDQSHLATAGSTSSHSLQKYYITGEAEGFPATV
Nature of the data set: PolarScreen ER Alpha Competitor Assay (fluorescence polarisation). The conditions noted are these: for IC50: 25 nM ERα, 4.5 nM fluormone, read-out: ER binding pIC50 (converted). It is filed as binding. Here is the method:
The pIC50 values of the molecules (Table 1) were measured using green PolarScreen™ ER Alpha Competitor Assay (Life Technologies, Carlsbad, CA) kit, following the protocol provided by the manufacturer as previously described. The final concentration of the molecules ranged between 0.0007 and 10,000 nM in the prepared dilution series. […] After mixing the assay plate, it was incubated for 2 h at the room temperature.
(In fluorescence polarisation assays a small probe gives low polarisation when free and higher when bound to something large.)

The target in data set [1] is T2, heterologously expressed human CYP1A2 enzyme (Homo sapiens, UniProt P05177).
T2 construct: purchased Corning Inc., Corning, NY
T2 sequence (P05177 1-516): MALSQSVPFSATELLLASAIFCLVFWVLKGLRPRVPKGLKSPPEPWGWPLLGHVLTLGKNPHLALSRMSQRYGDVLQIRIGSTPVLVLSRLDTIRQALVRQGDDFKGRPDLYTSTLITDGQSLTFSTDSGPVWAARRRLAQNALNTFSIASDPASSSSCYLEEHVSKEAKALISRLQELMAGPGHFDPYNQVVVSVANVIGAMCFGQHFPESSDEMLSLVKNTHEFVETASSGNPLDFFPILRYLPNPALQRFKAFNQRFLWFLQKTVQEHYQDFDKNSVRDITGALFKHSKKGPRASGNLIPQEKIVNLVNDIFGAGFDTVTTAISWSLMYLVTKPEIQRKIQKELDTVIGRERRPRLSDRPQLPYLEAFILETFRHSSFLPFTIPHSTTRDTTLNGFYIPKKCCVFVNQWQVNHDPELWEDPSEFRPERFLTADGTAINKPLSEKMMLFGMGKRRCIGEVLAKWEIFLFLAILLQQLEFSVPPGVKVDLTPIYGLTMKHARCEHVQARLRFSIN
Nature of the data set: CYP1A2 inhibition. The format is biochemical. The conditions noted are these: for IC50: read-out: CYP1A2 inhibition ∼ pIC50 (converted). The procedure:
Inhibition of CYP1A2 activity was determined using commercial heterologously expressed human CYP1A2 enzyme (Corning Inc., Corning, NY) essentially as described previously.

For another data set, the target named is T3, recombinant human HSD1 (Homo sapiens, UniProt P14061).
T3 construct: made in house; host or cells: Sf9 insect cells
T3 sequence (P14061 1-328): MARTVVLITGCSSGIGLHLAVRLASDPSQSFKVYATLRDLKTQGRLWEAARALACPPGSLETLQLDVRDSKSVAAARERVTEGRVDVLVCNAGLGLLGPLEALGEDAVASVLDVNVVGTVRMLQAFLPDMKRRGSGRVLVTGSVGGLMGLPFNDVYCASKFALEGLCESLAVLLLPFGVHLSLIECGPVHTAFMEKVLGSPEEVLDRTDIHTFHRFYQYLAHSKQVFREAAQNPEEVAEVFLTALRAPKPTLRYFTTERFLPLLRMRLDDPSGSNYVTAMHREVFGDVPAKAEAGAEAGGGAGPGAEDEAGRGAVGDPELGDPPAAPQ
In words: HSD1 inhibition, HPLC assay of [3H]-E1 to [3H]-E2 conversion. It is filed as biochemical. To be noted: for inhibition at 0.1 µM: average of two measurements; for inhibition at 0.1 µM / inhibition at 1 µM: except for compounds 8 and 9; for inhibition at 1 µM: average of three measurements; for IC50: estimated from three measurements at 1 µM, average ± standard error, read-out: HSD1 inhibition ∼ pIC50 (converted). Here is the method: The inhibition was determined by HPLC using recombinant human HSD1 and HSD2 proteins as described in a prior study. In short, recombinant human HSD1 and HSD2 were produced in Sf9-insect cells. […] After incubation, the reaction was stopped by addition of […] 10% trichloroacetic acid per sample. […] The ratio of [3H]-E1 converted to [3H]-E2 or vice versa determines the conversion percentage of the samples. Inhibition was measured in three concentrations (100 nM, 1, and 5 µM) in order to follow the progression of inhibition efficiencies. Inhibition efficiencies of the tested inhibitors were calculated by comparing the conversion percentages of the samples including inhibitors with those of conversion controls (without inhibitors).

For a further data set, the target named is T4, recombinant human HSD2 (Homo sapiens, UniProt P37059).
T4 construct: made in house; host or cells: Sf9 insect cells
T4 sequence (P37059 1-387): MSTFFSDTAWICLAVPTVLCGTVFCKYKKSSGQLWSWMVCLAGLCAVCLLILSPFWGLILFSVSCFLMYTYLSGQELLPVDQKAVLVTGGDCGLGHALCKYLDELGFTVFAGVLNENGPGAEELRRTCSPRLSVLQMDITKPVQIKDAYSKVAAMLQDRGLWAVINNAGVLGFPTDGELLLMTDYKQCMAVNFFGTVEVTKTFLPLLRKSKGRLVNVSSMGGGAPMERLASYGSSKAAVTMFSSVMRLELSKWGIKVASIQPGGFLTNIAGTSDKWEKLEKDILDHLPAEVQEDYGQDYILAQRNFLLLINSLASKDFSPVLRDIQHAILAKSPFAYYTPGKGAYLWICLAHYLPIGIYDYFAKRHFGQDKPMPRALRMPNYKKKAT
Nature of the data set: HSD2 inhibition, HPLC assay of [3H]-E2 to [3H]-E1 conversion. The format is biochemical. To be noted: read-out: HSD2 inhibition at 1 µM. Here is the method: The inhibition was determined by HPLC using recombinant human HSD1 and HSD2 proteins as described in a prior study. In short, recombinant human HSD1 and HSD2 were produced in Sf9-insect cells. […]. After incubation, the reaction was stopped by addition of […] 10% trichloroacetic acid per sample. After incubation the substrate and the product of enzymatic conversion [3H]-E1 and [3H]-E2 were separated and quantified by HPLC (Alliance 2790, Waters, Milford, MA) connected to an online counter (Packard Flow Scintillation Analyser; Perkin Elmer Inc., Waltham, […]). The ratio of [3H]-E1 converted to [3H]-E2 or vice versa determines the conversion percentage of the samples. Inhibition was measured in three concentrations (100 nM, 1, and 5 µM) in order to follow the progression of inhibition efficiencies. Inhibition efficiencies of the tested inhibitors were calculated by comparing the conversion percentages of the samples including inhibitors with those of conversion controls (without inhibitors).

Setting [2] is: 100 nM, read-out: HSD1 inhibition at 100 nM.
Setting [3] is: 1 µM, read-out: HSD1 inhibition at 1 µM.
Setting [4] is: 5 µM, read-out: HSD1 inhibition at 5 µM.

As a reminder, the inhibition is how much of the control response was suppressed. Consider `COc1ccc(-c2cc3cccc(O)c3oc2=O)cc1` [Compound 1, 8-hydroxy-3–(4-methoxyphenyl)-2H-chromen-2-one], for which the IC50 is greater than 10 µM at ERα, 85.1 µM in data set [1] and 0.501 µM on recombinant human HSD1. Moreover, the inhibition at 0.1 µM on recombinant human HSD1 (setting [2]) worked out at 16%. Moreover, the inhibition at 1 µM was no less than 68% on recombinant human HSD1 (setting [3]) and 27% at recombinant human HSD2. In addition, on recombinant human HSD1 (setting [4]), the inhibition at 5 µM is 88%.

For `O=c1oc2ccc(Cl)cc2cc1-c1cccc(O)c1` [Compound 4, 6-chloro-3–(3-hydroxyphenyl)-2H-chromen-2-one], the IC50 was greater than 10 µM on ERα, 0.129 µM in data set [1] and 0.158 µM at recombinant human HSD1. Besides, at recombinant human HSD1 (setting [2]), the inhibition at 0.1 µM is 47%. The inhibition at 1 µM at recombinant human HSD1 (setting [3]) is no less than 68%; on recombinant human HSD2, 16%. Further, the inhibition at 5 µM on recombinant human HSD1 (setting [4]) came out at 95%.

With `O=c1oc2ccc(O)cc2cc1-c1ccc(O)cc1` [Compound 2, 6-hydroxy-3–(4-hydroxyphenyl)-2H-chromen-2-one], the IC50 on ERα was greater than 10 µM; in data set [1], 33.1 µM; on recombinant human HSD1 it was 0.631 µM. In addition, the inhibition at 0.1 µM on recombinant human HSD1 (read-out: HSD1 inhibition at 100 nM, 100 nM) came out at 26%. Besides, the inhibition at 1 µM on recombinant human HSD1 (read-out: HSD1 inhibition at 1 µM, 1 µM) is no less than 68%; at recombinant human HSD2 it was 7%. Further, on recombinant human HSD1 (read-out: HSD1 inhibition at 5 µM, 5 µM), the inhibition at 5 µM worked out at 83%.

For `COc1ccc2cc(-c3ccc(O)c(F)c3)c(=O)oc2c1` [Compound 6, 3–(3-fluoro-4-hydroxyphenyl)-7-methoxy-2H-chromen-2-one], the “ER inhibition (in words)” value on ERα is on record as “reasonable ER inhibition”. For the same molecule, the IC50 on ERα was 0.708 µM; at recombinant human HSD1 it was 3.98 µM. In addition, in data set [1], the “CYP1A2 inhibition ∼ pIC50” value came to 4.52. At recombinant human HSD1 (setting [2]), the inhibition at 0.1 µM was 14%. Further, the inhibition at 1 µM on recombinant human HSD1 (setting [3]) stood at 23%; at recombinant human HSD2 it was 31%. Moreover, the inhibition at 5 µM on recombinant human HSD1 (setting [4]) was 27%.

With `O=c1oc2ccccc2cc1-c1cccc(O)c1` [Compound 3, 3–(3-hydroxyphenyl)-2H-chromen-2-one], the IC50 was greater than 10 µM on ERα, 7.08 µM in data set [1] and 1.26 µM on recombinant human HSD1. On recombinant human HSD1 (setting [2]), the inhibition at 0.1 µM was determined as 7%. For the same molecule, the figures for the inhibition at 1 µM at recombinant human HSD1 (setting [3]) and on recombinant human HSD2 were 47% and 42%, respectively. Moreover, on recombinant human HSD1 (setting [4]), the inhibition at 5 µM came to 76%.

For `COc1ccc2oc(=O)c(-c3ccc(O)c(F)c3)cc2c1` [Compound 7, 3–(3-fluoro-4-hydroxyphenyl)-6-methoxy-2H-chromen-2-one], the IC50 on ERα is greater than 10 µM; on recombinant human HSD1, 1.58 µM. The “CYP1A2 inhibition ∼ pIC50” value in data set [1] turned out to be 5.82. The inhibition at 0.1 µM on recombinant human HSD1 (setting [2]) was 16%. Besides, the inhibition at 1 µM worked out at 39% at recombinant human HSD1 (setting [3]) and 13% at recombinant human HSD2. The inhibition at 5 µM at recombinant human HSD1 (setting [4]) amounted to 62%.
